Results taken from patent US20250041245A1, “ENDOXIFEN FOR TREATMENT OF CANCERS” (Atossa Therapeutics, Inc., priority 2021, published 2025).
“And” between values parts separate entries of the source, which are not always exact repeats. Identical values can stand only once. “Also recorded” adds a separate entry of the source.

How the values were obtained:
Format in all cases: cell-based, human
Parameters in all cases: key to Personalization Category: Personalization categories range from High, Good, Moderate, Low, to None; Personalization categories range from High, Good, Moderate, Low, to None; Personalization categories range from High, Good, Moderate, Low, to None; Personalization categories range from High, Good, Moderate, Low, to None; Personalization categories range from High, Good, Moderate, Low, to None; key to Sensitivity Category: Sensitivity categories range from High, Good, Moderate, Low, to None; Sensitivity categories range from High, Good, Moderate, Low, to None; Sensitivity categories range from High, Good, Moderate, Low, to None; Sensitivity categories range from High, Good, Moderate, Low, to None; Sensitivity categories range from High, Good, Moderate, Low, to None; AUC: unit not given beside the values
[1] = tested on: patient-derived tumor organoids (PDTOs), thyroid cancer; assay: Endoxifen screen in PDTOs: thyroid cancer
Description: (§1) This example describes screening endoxifen in patient-derived tumor organoids. Endoxifen was tested as a single agent on tumor organoids derived from patients diagnosed with various cancer types using a personalized cancer treatment screening assay (PARIS© Test, SEngine Precision Medicine). The screen utilized patient-derived tumor organoids (PDTOs) along with high-throughput drug screening and machine learning-guided data analysis to quantify the efficacy of endoxifen against samples derived from individual patients diagnosed with various cancer types. PDTOs are self-organizing, three-dimensional organoid structures that recapitulate structural, functional, and genomic aspects of in vivo organs. The PDTOs were grown in culture from patient tumor biopsy samples.
(§2) Fresh patient biopsy samples received following surgery were cleaned and purified. Immune cells (e.g., lymphocytes, blood cells), cancer-associated fibroblasts, and other non-tumor cells were removed to establish pure PDTOs for endoxifen testing. The tumor organoids were grown and expanded by supplying organ- and patient-specific growth factors and nutrients. The PDTOs were treated with increasing concentrations of endoxifen ranging from about 30 nM to about 10 μM, and the drug response was measured using a luminescence readout. A lower luminescence was indicative of a stronger drug response.
(§3) The results were analyzed using a “SEngine Precision Medicine” (SPM) scoring system to assess the sensitivity and personalization of each tumor organoid to endoxifen. The SPM score correlates with clinical outcomes, such that a higher SPM score for a specific PDTO-drug combination predicts a more favorable clinical outcome following treatment of the corresponding patient with the tested drug.
(§4) This example describes testing endoxifen efficacy against 17 distinct cancer types in patient-derived tumor organoids (PDTOs). Screening of PDTOs was performed as described in EXAMPLE 1. For each PDTO sample, the drug response was measured using a luminescent readout over a range of endoxifen concentrations. The drug response was evaluated based on the area under the fitted dose response curve (AUC) and the SPM scoring system. AUC values were normalized for each PDTO. Briefly, data points at each drug concentration were first normalized to a negative control, then a dose response drug curve was approximated using a four-parameter logistic model fitted to the normalized data points. The area under the curve was calculated from the normalized curve. Normalization allowed for comparison of AUC values between patient samples. The SPM scores were based on machine learning models that incorporate values for how well the drug kill patient cells (sensitivity metric), the relative drug responses of a patient to all other patients in a sample database (personalization metric), and knowledge of clinical outcomes for patients that had been evaluated with the personalized cancer screening assay (PARIS® Test, SEngine Precision Medicine).
(§5) The SPM scoring system evaluated whether a PDTO was unresponsive or responsive to endoxifen and the degree of drug response for PDTOs that were responsive to endoxifen. […] The sensitivity category was determined from the sensitivity metric and is a measure of overall cell death of a patient's cells in response to endoxifen at six concentrations. […]

[2] = tested on: patient-derived tumor organoids (PDTOs), primary peritoneal carcinoma; assay: Endoxifen screen in PDTOs: primary peritoneal carcinoma
Description: as §1, §2, §3, §4, §5

[3] = tested on: patient-derived tumor organoids (PDTOs), pancreatic ductal adenocarcinoma; assay: Endoxifen screen in PDTOs: pancreatic ductal adenocarcinoma; conditions: each line one patient sample; for IC50: four-parameter logistic fit
Description: as §1, §2, §3, §4
The SPM scoring system evaluated whether a PDTO was unresponsive or responsive to endoxifen and the degree of drug response for PDTOs that were responsive to endoxifen. The SPM scoring system generated metrics an SPM score, predictive of clinical outcome, overall drug response (response category), drug sensitivity (sensitivity category), and drug personalization (personalization category). SPM scores ranged from 1-15, corresponding to the following drug response categories: no response (SPM 1-8), low response (SPM 9), moderate response (SPM 10-11), good response (SPM 12-13), and exceptional response (SPM 14-15). […] Moderate to good drug responses (SPM 10-13) may indicate that a drug has clinical relevance, possibly in combination with other drugs. The sensitivity category was determined from the sensitivity metric and is a measure of overall cell death of a patient's cells in response to endoxifen at six concentrations. […]

- IC50 ([1]; Homo sapiens, patient 4, four-parameter logistic fit): 7.1 µM
- IC50 ([2]; Homo sapiens, patient 72, four-parameter logistic fit): 9.37 µM
- IC50 ([3]; Homo sapiens): 4.47 µM
- IC50 [3]: 5.83 µM
SMILES: CC/C(=C(\c1ccc(O)cc1)c1ccc(OCCNC)cc1)c1ccccc1 [Endoxifen, 4-hydroxy-N-desmethyltamoxifen]
- Personalization Category ([1]; patient 4): None
- Sensitivity Category ([1]; patient 4): None
- AUC ([1]; patient 4, normalized area under fitted dose response curve): 0.9109
- SPM Score ([1]; patient 4, score range 1-15): 1
- Personalization Category ([2]; patient 72): None
- Sensitivity Category ([2]; patient 72): None
- AUC ([2]; patient 72, normalized area under fitted dose response curve): 0.9623
- SPM Score ([2]; patient 72, score range 1-15): 1
- Personalization Category [3]: Good and Low and None
- Response Category [3]: Moderate (moderate response (SPM 10-11)); also recorded: Low (low response (SPM 9)); also recorded: None (no response (SPM 1-8))
- Sensitivity Category [3]: Low and None
- AUC ([3]; normalized area under fitted dose response curve): 0.8283 and 0.8839 and 1.1358
- SPM Score ([3]; score range 1-15): 11 and 9 and 1
